# Results as given in publication PMC5241705 (ACS Infectious Diseases, 2016).
# “Also recorded” adds a separate entry of the source.
# What was measured:
# [1] = system: Mtb SRMV2.6 attB::guaB2^Y487C; format: cell-based, Mycobacterium tuberculosis
# [2] = system: Mtb H37Rv attB::guaB2^Y487C; format: cell-based, Mycobacterium tuberculosis
# Mtb GuaB2^Y487C = Mtb GuaB2^Y487C (Mycobacterium tuberculosis, UniProt P9WKI7, Y487C); format: biochemical
smiles,measurement,setting,value
"O=C(C1CCCCC1)N1CCN(S(=O)(=O)c2cccc3cnccc23)CC1 [VCC234718, N-(5-Isoquinolinylsulfonyl)-N’-cyclohexanoyl-piperazine]",MIC90,[1],>200 µM
same,MIC90,[2],>100 µM
same,inhibition of Mtb GuaB2^Y487C,Mtb GuaB2^Y487C,inactive; also recorded: refractory to inhibition
